Data: the NIST ThermoML archive (doi:10.1021/je100190e)

Test: mn = molality of the nth substance listed, in mol/kg
Conditions: 101 kPa, Liquid

N=C(N)NCCC[C@H](N)C(=O)O [L-arginine] + O
mass density [kg/m3]
Conditions	303.15 K	308.15 K	313.15 K	318.15 K	323.15 K
m1 = 0.0302	997.1	995.5	993.7	991.7	989.5
m1 = 0.0607	998.6	997	995.2	993.2	991
m1 = 0.0914	1000.1	998.5	996.7	994.7	992.5
m1 = 0.122	1001.5	999.9	998.1	996.1	993.9
m1 = 0.1533	1003	1001.4	999.6	997.6	995.4

N[C@@H](Cc1c[nH]cn1)C(=O)O [L-histidine] + O
mass density [kg/m3]
Conditions	303.15 K	308.15 K	313.15 K	318.15 K	323.15 K
m1 = 0.0303	997.3	995.7	993.9	991.9	989.7
m1 = 0.0606	998.9	997.3	995.5	993.5	991.3
m1 = 0.0913	1000.6	999	997.2	995.2	993
m1 = 0.1221	1002.2	1000.6	998.8	996.8	994.6
m1 = 0.1526	1003.8	1002.2	1000.4	998.4	996.2

Cl.NCCCC[C@H](N)C(=O)O [L-lysine monohydrochloride] + O
mass density [kg/m3]
Conditions	303.15 K	308.15 K	313.15 K	318.15 K	323.15 K
m1 = 0.0302	997.3	995.7	993.9	991.9	989.7
m1 = 0.0606	999	997.4	995.6	993.6	991.4
m1 = 0.0913	1000.7	999.1	997.3	995.3	993.1
m1 = 0.1224	1002.4	1000.8	999	997	994.8
m1 = 0.1536	1004.1	1002.5	1000.7	998.7	996.4

CC(=O)[O-].CC(=O)[O-].[Ca+2] [calcium acetate] + O
m1 = 1
Conditions	mass density [kg/m3]
303.15 K	1075.1
308.15 K	1073.2
313.15 K	1071.6
318.15 K	1069.3
323.15 K	1067.1

CC(=O)[O-].[K+] [potassium ethanoate] + O
m1 = 1
Conditions	mass density [kg/m3]
303.15 K	1039.7
308.15 K	1038.1
313.15 K	1036.1
318.15 K	1033.5
323.15 K	1032

CC(=O)[O-].[Na+] [sodium ethanoate] + O
m1 = 1
Conditions	mass density [kg/m3]
303.15 K	1032.9
308.15 K	1031.8
313.15 K	1029.3
318.15 K	1027.5
323.15 K	1025.4

O [water] + Cl.NCCCC[C@H](N)C(=O)O
Conditions	mass density [kg/m3]
323.15 K, m2 = 0	988

O [water] + N=C(N)NCCC[C@H](N)C(=O)O
Conditions	mass density [kg/m3]
323.15 K, m2 = 0	988

O [water] + N[C@@H](Cc1c[nH]cn1)C(=O)O
Conditions	mass density [kg/m3]
323.15 K, m2 = 0	988
